These results are taken from article PMC6447865, “Novel Group of Imidazole Derivatives as Atypical Selective Cyclooxygenase-2 Inhibitors: Design, Synthesis and Biological Evaluation” (Iranian Journal of Pharmaceutical Research : IJPR, 2018).

One data set has as its target T1, COX-1 enzyme (Ovis aries, UniProt P05979).
T1 construct: purchased Cayman 701050
T1 sequence (P05979 25-600): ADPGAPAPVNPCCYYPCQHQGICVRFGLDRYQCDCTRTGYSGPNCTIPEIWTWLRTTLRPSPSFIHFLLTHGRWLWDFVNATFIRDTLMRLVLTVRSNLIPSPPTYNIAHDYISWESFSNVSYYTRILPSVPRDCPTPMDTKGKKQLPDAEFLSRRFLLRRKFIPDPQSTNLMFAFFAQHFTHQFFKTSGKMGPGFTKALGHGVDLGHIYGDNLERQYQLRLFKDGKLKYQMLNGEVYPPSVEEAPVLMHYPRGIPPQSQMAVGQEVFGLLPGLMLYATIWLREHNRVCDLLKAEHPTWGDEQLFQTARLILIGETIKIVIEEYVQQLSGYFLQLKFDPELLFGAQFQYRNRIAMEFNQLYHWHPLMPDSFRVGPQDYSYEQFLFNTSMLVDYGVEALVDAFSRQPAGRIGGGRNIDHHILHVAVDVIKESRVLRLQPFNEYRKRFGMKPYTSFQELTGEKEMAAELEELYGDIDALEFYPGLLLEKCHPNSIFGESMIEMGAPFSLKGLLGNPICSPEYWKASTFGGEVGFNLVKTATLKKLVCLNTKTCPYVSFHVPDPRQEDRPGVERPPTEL
Briefly: biochemical. As to conditions: mean of two values; enzyme incubated with inhibitor 2 min, pH 8.0, 25 °C; arachidonic acid substrate; absorbance 590 nm. Here is the method: (§1) All test samples were dissolved in DMSO and absorbance was read at 590 nm. The IC50 amounts of the novel compounds were analyzed using nonlinear regression with Dos-response inhibition parameter by the activity base software package (Program Prism, Graph Pad, SanDiego, CA).

A further data set has as its target T2, COX-2 enzyme (Homo sapiens, UniProt P35354).
T2 construct: purchased Cayman 701050
T2 sequence (P35354 18-604): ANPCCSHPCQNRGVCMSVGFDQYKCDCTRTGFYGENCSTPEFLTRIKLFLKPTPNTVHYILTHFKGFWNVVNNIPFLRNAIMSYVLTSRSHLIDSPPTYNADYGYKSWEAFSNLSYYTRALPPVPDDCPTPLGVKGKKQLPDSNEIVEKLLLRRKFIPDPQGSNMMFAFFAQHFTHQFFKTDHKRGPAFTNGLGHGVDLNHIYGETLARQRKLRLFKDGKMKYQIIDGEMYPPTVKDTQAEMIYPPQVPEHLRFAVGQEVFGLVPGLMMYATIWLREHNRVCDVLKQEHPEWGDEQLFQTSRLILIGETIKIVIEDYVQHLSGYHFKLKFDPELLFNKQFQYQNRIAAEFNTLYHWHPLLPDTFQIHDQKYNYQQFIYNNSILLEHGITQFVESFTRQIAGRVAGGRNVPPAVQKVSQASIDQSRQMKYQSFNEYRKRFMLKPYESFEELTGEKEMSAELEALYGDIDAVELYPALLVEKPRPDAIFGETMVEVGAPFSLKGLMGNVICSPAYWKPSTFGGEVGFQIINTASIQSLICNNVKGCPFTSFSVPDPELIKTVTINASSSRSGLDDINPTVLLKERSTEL
Briefly: biochemical. As to conditions: for IC50: mean of two values, enzyme incubated with inhibitor 2 min, pH 8.0, 25 °C, arachidonic acid substrate, absorbance 590 nm; for COX-2 S.I. (in-vitro COX-2 selectivity index, COX-1/COX-2): ratio IC50 COX-1 / IC50 COX-2. How it is done: as §1

On to `CS(=O)(=O)c1ncc(CNc2ccc(Br)cc2)n1Cc1ccccc1` [Compound 5c, N-((1-benzyl-2-(methylsulfonyl)-1H-imidazol-5-yl)methyl)-4-bromobenzamine], for which the melting point was found to be 155 °C. Also, the IC50 on COX-1 enzyme was determined as 78 µM. Also, on COX-2 enzyme, the IC50 stood at 2.8 µM and the “COX-2 S.I. (in-vitro COX-2 selectivity index, COX-1/COX-2)” value came out at 28.
As to `CS(=O)(=O)c1ncc(CNc2ccc([N+](=O)[O-])cc2)n1Cc1ccccc1` [Compound 5d, N-((1-benzyl-2-(methylsulfonyl)-1H-imidazol-5-yl)methyl)-4-nitrobenzamine], the melting point was found to be 177 °C. The IC50 against COX-1 enzyme worked out at 78 µM. Also, at COX-2 enzyme, the IC50 is 3 µM and the “COX-2 S.I. (in-vitro COX-2 selectivity index, COX-1/COX-2)” value is 26.
In the case of `CS(=O)(=O)c1ncc(CNc2ccccc2)n1Cc1ccccc1` [Compound 5a, N-((1-benzyl-2-(methylsulfonyl)-1H-imidazol-5-yl)methyl)benzamine], the melting point was in the range of 114 to 115 °C. At COX-1 enzyme, this molecule showed an IC50 of 87 µM. On COX-2 enzyme, inhibition was half-maximal at 3.2 µM (IC50) and the “COX-2 S.I. (in-vitro COX-2 selectivity index, COX-1/COX-2)” value stood at 27.
For the molecule `CS(=O)(=O)c1ncc(CNc2ccc(Cl)cc2)n1Cc1ccccc1` [Compound 5e, N-((1-benzyl-2-(methylsulfonyl)-1H-imidazol-5-yl)methyl)-4-chlorobenzamine], the melting point is 142 °C. This molecule also showed an IC50 on COX-1 enzyme of 138 µM. At COX-2 enzyme, half-maximal inhibition (IC50) was put at 3.6 µM and the “COX-2 S.I. (in-vitro COX-2 selectivity index, COX-1/COX-2)” value was found to be 38.
Molecule `COc1ccc(NCc2cnc(S(C)(=O)=O)n2Cc2ccccc2)cc1` [Compound 5b, N-((1-benzyl-2-(methylsulfonyl)-1H-imidazol-5-yl)methyl)-4-methoxybenzamine] registered a melting point of 152 °C. Moreover, the IC50 at COX-1 enzyme worked out at 82 µM. On COX-2 enzyme, the IC50 came to 0.71 µM and the “COX-2 S.I. (in-vitro COX-2 selectivity index, COX-1/COX-2)” value came to 115.

What is called IC50 is the concentration that inhibits the measured activity by half. One may read the melting point as the temperature of the solid-liquid transition.
